Results as given in patent publication US20240293586A1, “RA[…] AND USE THEREOF” (OSAKA UNIVERSITY, priority 2021, published 2024).

Legend:
Assay type in all cases: in vivo, SCID mice
[1] = tested on: human prostate cancer cells (LNCaP); experiment: Therapeutic test in human prostate cancer-transplanted mice (Experimental Example 4); details: 0.4 MBq or 1 MBq, n=3; kept for 3 weeks; FIGS. 12 to 14
Protocol: SCID mice (9 weeks old, male, n=5) were subcutaneously transplanted with human prostate cancer cells (LNCaP, 0.5×10^7 cells/mouse), and then kept for one month. The tumor-transplanted mice were divided into Compound 3, 7 or 8 administration group (0.4 MBq or 1 MBq, n=3) and control group (CTL, n=2 or 3), and kept for 3 weeks thereafter, and changes in tumor size and body weight were measured.

[2] = tested on: human prostate cancer cells (LNCaP); experiment: Biodistribution test in human prostate cancer-transplanted mice or normal mice; details: approximately 0.1 MBq, 3 and 24 hours after administration; for accumulation in the tumors (radioactivity distribution % ID, % ID/g): tumor-transplanted mice, FIGS. 8, 10; for accumulation in the kidney (radioactivity distribution % ID, % ID/g): tumor-transplanted or normal mice, FIGS. 7 to 11
Protocol: SCID mice (9 weeks old, male, n=5) were subcutaneously transplanted with human prostate cancer cells (LNCaP, 0.5×10^7 cells/mouse), and then kept for one month. Compound 3, 4, 7 or 8 (approximately 0.1 MBq) was administered to the tumor-transplanted mice or normal mice, and the mice were dissection under isoflurane inhalation anesthesia at 3 and 24 hours after administration to collect various organs including blood, urine and tumors. The radioactivity distribution (% ID) and radioactivity distribution per 1 g of organ weight (% ID/g) were measured for each organ.

[3] = tested on: human prostate cancer cells (LNCaP); experiment: Imaging of human prostate cancer-transplanted mice (planar images, SPECT camera); details: FIG. 5; for accumulation at the tumor-transplanted site: 0.43±0.01 MBq via the tail vein
Protocol: (§1) SCID mice (9 weeks old, male, n=5) were subcutaneously transplanted with human prostate cancer cells (LNCaP, 0.5×10^7 cells/mouse), and then kept for one month. The mice were divided into Compound 3 administration group (n=3) and control group (n=2). For the Compound 3 administration group, Compound 3 (0.43±0.01 MBq) was administered via the tail vein. For the control group, physiological saline was administered. The mice in the Compound 3 administration group (n=3) were anesthetized with isoflurane inhalation at 3 and 24 hours after administration, and the planar images were taken using a SPECT camera (E-cam, Siemens) (matrix size: 256×256, pixel size 1.2×1.2 mm, collimator: LEAP, energy window: 79 keV±20%, image acquisition time 10 min or 20 min).

[4] = Blood biochemical tests and histopathological examination after the therapeutic test; details: 3 weeks after 0.5 MBq
Protocol: (§2) The mice in the Compound 3 administration group (0.5 MBq, n=3) and control group (CTL, n=2) of Experimental Example 1 were kept for 3 weeks thereafter, and changes in tumor size were measured. The tumor size was standardized by size at the time of drug administration, and the relative ratio (fold change) to subsequent tumor size was calculated. The tumor size in the control group increased over time, and it increased about seven times after three weeks. […] The mice were dissected and blood biochemical tests were performed.

[5] = tested on: human prostate cancer cells (LNCaP); experiment: Therapeutic test in human prostate cancer-transplanted mice with Compound 3 (tumor size); details: 0.5 MBq, FIG. 6
Protocol: as §1, §2

[6] = planar imaging at 3 and 24 hours after administration

Compound: O=C(O)CC[C@H](NC(=O)N[C@@H](CCCCNC(=O)[C@@H](Cc1ccc2ccccc2c1)NC(=O)c1ccc(CNC(=O)[C@@H](CCC(=O)O)NC(=O)[C@@H](CCC(=O)O)NC(=O)Cc2ccc([211At])cc2)cc1)C(=O)O)C(=O)O [Compound 3]
- change in tumor size versus control group [1]: tumor growth inhibition was observed
- accumulation in the tumors (radioactivity distribution % ID, % ID/g) [2]: significantly accumulated in the tumors
- accumulation in the kidney (radioactivity distribution % ID, % ID/g) [2]: accumulate physiologically in the kidney
- accumulation at the tumor-transplanted site ([3]; 3 hours after administration): accumulated at the tumor-transplanted site
- accumulation at the tumor-transplanted site ([3]; 24 hours after administration): the accumulation continued
- accumulation in the kidneys [3, 6]: physiological accumulation in the kidneys
- nonspecific accumulation in other organs [3, 6]: no nonspecific accumulation in other organs was observed
- histopathological examination of kidneys, salivary glands and thyroid glands [4]: no particular abnormal findings
- renal function marker values (blood biochemical tests) versus control group [4]: no significant differences
- tumor size, relative ratio (fold change) to size at the time of drug administration ([5]; after three weeks, n=3, control increased about seven times): 0.27 times
- tumor size change ([5]; immediately after administration): tendency to shrink

Compound: O=C(O)CC[C@H](NC(=O)N[C@@H](CCCCNC(=O)[C@H](Cc1ccc2ccccc2c1)NC(=O)c1ccc(CNC(=O)[C@H](CCC(=O)O)NC(=O)[C@H](CCC(=O)O)NC(=O)Cc2ccc([211At])cc2)cc1)C(=O)O)C(=O)O [Compound 4]
- accumulation in the kidney (radioactivity distribution % ID, % ID/g) [2]: accumulate physiologically in the kidney

Compound: O=C(O)CC[C@H](NC(=O)N[C@@H](CCCCNC(=O)[C@@H](Cc1ccc2ccccc2c1)NC(=O)c1ccc(CNC(=O)CCC(=O)NCCCC[C@H](NC(=O)CNC(=O)Cc2ccc([211At])cc2)C(=O)O)cc1)C(=O)O)C(=O)O [Compound 7]
- change in tumor size versus control group [1]: tumor growth inhibition was observed
- accumulation in the tumors (radioactivity distribution % ID, % ID/g) [2]: significantly accumulated in the tumors
- accumulation in the kidney (radioactivity distribution % ID, % ID/g) [2]: accumulate physiologically in the kidney

Compound: O=C(O)CC[C@H](NC(=O)N[C@@H](CCCCNC(=O)[C@@H](Cc1ccc2ccccc2c1)NC(=O)c1ccc(CNC(=O)[C@@H](CCC(=O)O)NC(=O)[C@@H](CCC(=O)O)NC(=O)CCC(=O)NCCCC[C@H](NC(=O)CNC(=O)Cc2ccc([211At])cc2)C(=O)O)cc1)C(=O)O)C(=O)O [Compound 8]
- change in tumor size versus control group [1]: tumor growth inhibition was observed
- accumulation in the kidney (radioactivity distribution % ID, % ID/g) [2]: accumulate physiologically in the kidney
